Source: the NIST ThermoML archive (doi:10.1016/j.jct.2014.05.014)

Test: cn = amount concentration of the nth substance listed, in mol/dm3
Conditions: 101.3 kPa, Liquid; for electrical conductivity: Alternating current cell with electrodes; for viscosity: Falling or rolling sphere viscometry; for mass density: Vibrating tube method

CC(N)C(=O)[O-].[K+] (stereo not drawn) [potassium DL-alaninate] + O
Conditions | electrical conductivity [S/m] | mass density [kg/m3] | viscosity [mPa·s]
303.15 K, c1 = 0.495 | – | 1024.1 | –
303.15 K, c1 = 0.514 | – | – | 0.942
303.15 K, c1 = 0.526 | 3.96 | – | –
303.15 K, c1 = 1.009 | 6.63 | – | –
303.15 K, c1 = 1.014 | – | 1051.7 | –
303.15 K, c1 = 1.029 | – | – | 1.118
303.15 K, c1 = 1.499 | 8.42 | – | –
303.15 K, c1 = 1.509 | – | 1078.7 | –
303.15 K, c1 = 1.524 | – | – | 1.342
303.15 K, c1 = 1.954 | – | 1103.2 | –
303.15 K, c1 = 1.999 | – | – | 1.6
303.15 K, c1 = 2.018 | 9.49 | – | –
303.15 K, c1 = 2.501 | 9.88 | – | –
303.15 K, c1 = 2.507 | – | 1131.4 | –
303.15 K, c1 = 2.522 | – | – | 1.964
303.15 K, c1 = 2.988 | – | 1155.8 | –
303.15 K, c1 = 3.046 | 9.87 | – | –
303.15 K, c1 = 3.048 | – | – | 2.422
303.15 K, c1 = 3.497 | 9.58 | – | –
303.15 K, c1 = 3.499 | – | 1181 | –
308.15 K, c1 = 0.495 | – | 1022.4 | –
308.15 K, c1 = 0.514 | – | – | 0.845
308.15 K, c1 = 0.526 | 4.34 | – | –
308.15 K, c1 = 1.009 | 7.25 | – | –
308.15 K, c1 = 1.014 | – | 1049.8 | –
308.15 K, c1 = 1.029 | – | – | 1.009
308.15 K, c1 = 1.499 | 9.18 | – | –
308.15 K, c1 = 1.509 | – | 1076.7 | –
308.15 K, c1 = 1.524 | – | – | 1.203
308.15 K, c1 = 1.954 | – | 1101.1 | –
308.15 K, c1 = 1.999 | – | – | 1.429
308.15 K, c1 = 2.018 | 10.4 | – | –
308.15 K, c1 = 2.501 | 10.8 | – | –
308.15 K, c1 = 2.507 | – | 1129.2 | –
308.15 K, c1 = 2.522 | – | – | 1.745
308.15 K, c1 = 2.988 | – | 1153.4 | –
308.15 K, c1 = 3.046 | 10.9 | – | –
308.15 K, c1 = 3.048 | – | – | 2.135
308.15 K, c1 = 3.497 | 10.6 | – | –
308.15 K, c1 = 3.499 | – | 1178.4 | –
313.15 K, c1 = 0.495 | – | 1020.5 | –
313.15 K, c1 = 0.514 | – | – | 0.769
313.15 K, c1 = 0.526 | 4.73 | – | –
313.15 K, c1 = 1.009 | 7.84 | – | –
313.15 K, c1 = 1.014 | – | 1047.7 | –
313.15 K, c1 = 1.029 | – | – | 0.909
313.15 K, c1 = 1.499 | 9.94 | – | –
313.15 K, c1 = 1.509 | – | 1074.5 | –
313.15 K, c1 = 1.524 | – | – | 1.093
313.15 K, c1 = 1.954 | – | 1098.8 | –
313.15 K, c1 = 1.999 | – | – | 1.29
313.15 K, c1 = 2.018 | 11.2 | – | –
313.15 K, c1 = 2.501 | 11.8 | – | –
313.15 K, c1 = 2.507 | – | 1126.8 | –
313.15 K, c1 = 2.522 | – | – | 1.569
313.15 K, c1 = 2.988 | – | 1150.9 | –
313.15 K, c1 = 3.046 | 11.8 | – | –
313.15 K, c1 = 3.048 | – | – | 1.907
313.15 K, c1 = 3.497 | 11.6 | – | –
313.15 K, c1 = 3.499 | – | 1175.8 | –
318.15 K, c1 = 0.495 | – | 1018.4 | –
318.15 K, c1 = 0.514 | – | – | 0.705
318.15 K, c1 = 0.526 | 5.12 | – | –
318.15 K, c1 = 1.009 | 8.45 | – | –
318.15 K, c1 = 1.014 | – | 1045.6 | –
318.15 K, c1 = 1.029 | – | – | 0.83
318.15 K, c1 = 1.499 | 10.7 | – | –
318.15 K, c1 = 1.509 | – | 1072.3 | –
318.15 K, c1 = 1.524 | – | – | 1
318.15 K, c1 = 1.954 | – | 1096.5 | –
318.15 K, c1 = 1.999 | – | – | 1.17
318.15 K, c1 = 2.018 | 12.1 | – | –
318.15 K, c1 = 2.501 | 12.7 | – | –
318.15 K, c1 = 2.507 | – | 1124.3 | –
318.15 K, c1 = 2.522 | – | – | 1.426
318.15 K, c1 = 2.988 | – | 1148.3 | –
318.15 K, c1 = 3.046 | 12.8 | – | –
318.15 K, c1 = 3.048 | – | – | 1.712
318.15 K, c1 = 3.497 | 12.6 | – | –
318.15 K, c1 = 3.499 | – | 1173.1 | –
323.15 K, c1 = 0.495 | – | 1016.2 | –
323.15 K, c1 = 0.514 | – | – | 0.644
323.15 K, c1 = 0.526 | 5.5 | – | –
323.15 K, c1 = 1.009 | 9.06 | – | –
323.15 K, c1 = 1.014 | – | 1043.4 | –
323.15 K, c1 = 1.029 | – | – | 0.76
323.15 K, c1 = 1.499 | 11.5 | – | –
323.15 K, c1 = 1.509 | – | 1069.9 | –
323.15 K, c1 = 1.524 | – | – | 0.922
323.15 K, c1 = 1.954 | – | 1094.2 | –
323.15 K, c1 = 1.999 | – | – | 1.069
323.15 K, c1 = 2.018 | 12.9 | – | –
323.15 K, c1 = 2.501 | 13.7 | – | –
323.15 K, c1 = 2.507 | – | 1121.8 | –
323.15 K, c1 = 2.522 | – | – | 1.301
323.15 K, c1 = 2.988 | – | 1145.7 | –
323.15 K, c1 = 3.046 | 13.9 | – | –
323.15 K, c1 = 3.048 | – | – | 1.549
323.15 K, c1 = 3.497 | 13.7 | – | –
323.15 K, c1 = 3.499 | – | 1170.3 | –
328.15 K, c1 = 0.495 | – | 1013.9 | –
328.15 K, c1 = 0.514 | – | – | 0.596
328.15 K, c1 = 0.526 | 5.89 | – | –
328.15 K, c1 = 1.009 | 9.68 | – | –
328.15 K, c1 = 1.014 | – | 1041 | –
328.15 K, c1 = 1.029 | – | – | 0.703
328.15 K, c1 = 1.499 | 12.2 | – | –
328.15 K, c1 = 1.509 | – | 1067.4 | –
328.15 K, c1 = 1.524 | – | – | 0.854
328.15 K, c1 = 1.954 | – | 1091.5 | –
328.15 K, c1 = 1.999 | – | – | 0.985
328.15 K, c1 = 2.018 | 13.8 | – | –
328.15 K, c1 = 2.501 | 14.6 | – | –
328.15 K, c1 = 2.507 | – | 1119 | –
328.15 K, c1 = 2.522 | – | – | 1.201
328.15 K, c1 = 2.988 | – | 1143 | –
328.15 K, c1 = 3.046 | 14.9 | – | –
328.15 K, c1 = 3.048 | – | – | 1.413
328.15 K, c1 = 3.497 | 14.7 | – | –
328.15 K, c1 = 3.499 | – | 1167.5 | –
333.15 K, c1 = 0.495 | – | 1011.5 | –
333.15 K, c1 = 0.514 | – | – | 0.547
333.15 K, c1 = 0.526 | 6.27 | – | –
333.15 K, c1 = 1.009 | 10.3 | – | –
333.15 K, c1 = 1.014 | – | 1038.5 | –
333.15 K, c1 = 1.029 | – | – | 0.649
333.15 K, c1 = 1.499 | 13 | – | –
333.15 K, c1 = 1.509 | – | 1064.9 | –
333.15 K, c1 = 1.524 | – | – | 0.799
333.15 K, c1 = 1.954 | – | 1088.8 | –
333.15 K, c1 = 1.999 | – | – | 0.902
333.15 K, c1 = 2.018 | 14.6 | – | –
333.15 K, c1 = 2.501 | 15.5 | – | –
333.15 K, c1 = 2.507 | – | 1116.3 | –
333.15 K, c1 = 2.522 | – | – | 1.104
333.15 K, c1 = 2.988 | – | 1140.2 | –
333.15 K, c1 = 3.046 | 15.8 | – | –
333.15 K, c1 = 3.048 | – | – | 1.286
333.15 K, c1 = 3.497 | 15.7 | – | –
333.15 K, c1 = 3.499 | – | 1164.6 | –
338.15 K, c1 = 0.495 | – | 1008.9 | –
338.15 K, c1 = 0.514 | – | – | 0.507
338.15 K, c1 = 0.526 | 6.64 | – | –
338.15 K, c1 = 1.009 | 10.8 | – | –
338.15 K, c1 = 1.014 | – | 1035.9 | –
338.15 K, c1 = 1.029 | – | – | 0.602
338.15 K, c1 = 1.499 | 13.8 | – | –
338.15 K, c1 = 1.509 | – | 1062.1 | –
338.15 K, c1 = 1.524 | – | – | 0.742
338.15 K, c1 = 1.954 | – | 1086.1 | –
338.15 K, c1 = 1.999 | – | – | 0.83
338.15 K, c1 = 2.018 | 15.5 | – | –
338.15 K, c1 = 2.501 | 16.4 | – | –
338.15 K, c1 = 2.507 | – | 1113.5 | –
338.15 K, c1 = 2.522 | – | – | 1.015
338.15 K, c1 = 2.988 | – | 1137.3 | –
338.15 K, c1 = 3.046 | 16.8 | – | –
338.15 K, c1 = 3.048 | – | – | 1.176
338.15 K, c1 = 3.497 | 16.7 | – | –
338.15 K, c1 = 3.499 | – | 1161.6 | –
343.15 K, c1 = 0.495 | – | 1006.3 | –
343.15 K, c1 = 0.514 | – | – | 0.475
343.15 K, c1 = 0.526 | 7.02 | – | –
343.15 K, c1 = 1.009 | 11.4 | – | –
343.15 K, c1 = 1.014 | – | 1033.1 | –
343.15 K, c1 = 1.029 | – | – | 0.563
343.15 K, c1 = 1.499 | 14.5 | – | –
343.15 K, c1 = 1.509 | – | 1059.4 | –
343.15 K, c1 = 1.524 | – | – | 0.693
343.15 K, c1 = 1.954 | – | 1083.4 | –
343.15 K, c1 = 1.999 | – | – | 0.77
343.15 K, c1 = 2.018 | 16.3 | – | –
343.15 K, c1 = 2.501 | 17.4 | – | –
343.15 K, c1 = 2.507 | – | 1110.5 | –
343.15 K, c1 = 2.522 | – | – | 0.94
343.15 K, c1 = 2.988 | – | 1134.4 | –
343.15 K, c1 = 3.046 | 17.8 | – | –
343.15 K, c1 = 3.048 | – | – | 1.087
343.15 K, c1 = 3.497 | 17.7 | – | –
343.15 K, c1 = 3.499 | – | 1158.6 | –
